In patent US20220291238A1, “Methods for Predicting Treatment Response in Ulcerative Colitis” (Janssen Biotech, Inc., priority 2021, published 2022):

Assays:
TRUC mice = experiment: TRUC mouse chronic colitis model, in vivo treatments; settings: TRUC Il22−/− mice
Description: In vivo treatments: Neutralizing anti-IL-22 mAb (clone IL22-01) and recombinant IL-22 (rIL-22) were developed and provided by Pfizer. […] of IL22-01 (per mouse) were administered i.p. every 3 to 4 days. […] of rIL-22 (per mouse) were administered i.p. at days 0, 4, 8 and 12, while mice were culled at day 14. Anti-CXCR2 (clone 242216, R&D Systems) was administered i.p. at a dose of […] per mouse at days 0, 3, 7, 10 and 14, while mice were culled at day 15.
Isolation of colonic LP leukocytes (cLPMCs): Mice were euthanized by either cervical dislocation or by a rising concentration of carbon dioxide gas, and then dissected in a laminar flow cabinet under aseptic conditions. Colons were opened longitudinally, cleaned thoroughly with ice-cold PBS and cut into 1-2 mm pieces and washed with 10 ml 5 mM EDTA, 1 mM Hepes in HBSS (Gibco; Gaithersburg, Md.) in a shaking water bath (300 rpm) at 37° C. for 20 min. Tissue was then vortexed vigorously for 10 seconds and passed through a […] cell strainer and collected in Ctubes (Miltenyi; Bergisch Gladbach, Germany) in complete RPMI (Gibco) containing 10% fetal calf serum, 0.25 mg/ml Collagenase D (Roche; Basel, Switzerland), 1.5 mg/ml Dispase II (Roche) and […] DNase (Roche) and put in a shaking water bath (300 rpm) at 37° C. for 40 minutes. Before and after the 40 minute incubation C-tubes were vigorously shaken for 30 seconds. Solutions were then passed through […] cell strainers and washed with ice-cold PBS. […] Cells were resuspended in 1 ml PBS, counted, and immediately used for further experiments.
Gene expression analysis: Whole tissue colonic fragments or sorted cells were lysed in 1 ml TRIsure (Bioline) and stored at −80° C. pending further processing. […] Concentration of RNA in each sample was measured using NanoDrop. […] Quantitative PCR was performed using QuantiTect primers (Qiagen) and Quantitect SybrGreen MasterMix (Qiagen) on a LightCycler 480 (Roche). Samples were analyzed in triplicates and relative expression of mRNAs was determined after normalization against the housekeeping gene Beta-2-Microglobulin (B2M). […]

[1] = system: patients with moderate-to-severe UC; experiment: UNIFI phase 3 trial: ustekinumab induction in UC patients stratified by baseline IL22 enrichment score; assay type: in vivo, human; settings: week 8
Excerpt: Gene Set Variation Analysis: To test the activation of each of the cytokine regulated transcriptional programs we used gene set variation analysis (GSVA) (56) to probe whole transcriptional profiles of previously reposited datasets and the dataset generated in the context of the ustekinumab and golimumab trials programs.
UNIFI trial programme: The UNIFI trial was a randomized placebo-controlled phase 3 clinical trial evaluating the efficacy and safety of ustekinumab (NCT02407236) and has already been reported (43). In this study, for the first time, transcriptional data from biopsies were reported, which were correlated to clinical, endoscopic and biomarker data available from the UNIFI cohort. Colonic biopsies were sampled at defined time points after institution of treatment in a subset of patients and were immediately transferred to RNALater (Qiagen) and stored at −80° C. prior to RNA extraction. Whole genome transcriptomics were performed on the Affymetrix HG U133 PM array. Clinical data was recorded prospectively according to the trial protocol. Outcomes reported include: clinical remission (defined as a total Mayo score of ≤2 and no subscore >1) and deep remission (which required both histologic improvement (defined as neutrophil infiltration in <5% of crypts, no crypt destruction, and no erosions, ulcerations, or granulation tissue) and endoscopic improvement) at week 8. Analysis presented is based on all patients receiving ustekinumab regardless of dose (130 mg and 6 mg/kg).
Next, it was determined whether core transcripts regulated by the IL23/IL22 axis were differentially expressed in diseased tissue of UC patients. Gene Set Variation Analysis (GSVA) is an algorithm which tests whether entire transcriptional programmes are enriched in complex and heterogeneous samples. […] Endoscopically acquired colonic biopsies were sampled from the sigmoid colon of patients with moderate-to-severe UC (n=550) enrolled to the UNIFI phase III clinical trial, a randomized, placebo controlled trial evaluating the efficacy of ustekinumab, a monoclonal antibody (mAb) that blocks the p40 subunit shared by the human IL-12 and IL-23 cytokines. […] These findings were replicated in 2 additional independent cohorts of UC patients where transcriptomic data was available in publicly accessible repositories (GSE50971 and GSE16879, FIG. 4A). […] Consistent with IL23 being an important driver of IL22, there was a significant correlation between the enrichment scores for IL23 and IL22 in colonic biopsies.
Although IL23 and IL22 responsive transcriptional programs were enriched at population level in UC patients, there was considerable variation in magnitude of enrichment. Since it was unlikely that this variation was being driven by differences in disease severity (all patients in the UNIFI trial program had moderate to severe UC, with Mayo endoscopy subscores of either 2 or 3), the possibility that this molecular heterogeneity might represent important differences in underlying disease immunobiology was considered. If molecular stratification of UC patients according to the magnitude of IL23/IL22 responsive transcript enrichment was biologically and/or clinically meaningful, it was reasoned that UC patients with different degrees of enrichment would experience different outcomes and follow different trajectories. To test this hypothesis, patients from the UNIFI trial program were stratified according to IL23 or IL22 enrichment scores (in colonic biopsies sampled immediately prior initiation with ustekinumab), and whether these differences in molecular phenotype impacted treatment response were evaluated. Enrichment scores in colonic tissue, for both cytokines, could differentiate responders and non-responders to ustekinumab induction therapy (including patients on 130 mg and 6 mg/kg dose), although, the IL22-responsive transcriptional program was especially discriminatory (FIGS. 3D-3F and FIGS. 5A-5D). […]

[2] = patients with low IL22 enrichment scores (ES<0)

| Substance | Cxcl1 and Cxcl5 expression in the colon (TRUC mice) | disease activity (colitis) (TRUC mice) | neutrophil recruitment in the colon (TRUC mice) | outcomes in UC patients with high IL22 enrichment scores ([1]; high IL22 enrichment scores) | clinical remission [1, 2] [%] | deep remission (clinical, endoscopic and histologic remission) [1, 2] [%] | mucosal healing [1, 2] [%] | deep remission (clinical, endoscopic and histologic remission) ([1]; unstratified UC patients) [%] | mucosal healing ([1]; unstratified UC patients) [%] | clinical remission ([1]; unstratified UC patients, ustekinumab induction 130 mg and 6 mg/kg pooled) [%] |
| --- | --- | --- | --- | --- | --- | --- | --- | --- | --- | --- |
| rIL22: recombinant IL-22 developed and provided by Pfizer, given i.p. to mice | reinstated | restored colitis | restored excessive neutrophil recruitment |  |  |  |  |  |  |  |
| ustekinumab: monoclonal antibody blocking the p40 subunit shared by IL-12 and IL-23; heavy chain SEQ ID NO:10, light chain SEQ ID NO:11 |  |  |  | broadly comparable to placebo treated patients | 26.6 | 22.7 | 25.9 | 11.7 | 15.6 | 13.4 |
